The results in this text go back to patent US11000033B2, “Ketone or oxime compound, and herbicide” (NISSAN CHEMICAL CORPORATION, priority 2014, dated 2021).

Holding throughout (assay type): in vivo
The subject of one series is corn. In words: Test Example 4: effect on crop by soil treatment (symbol c). Conditions: for Effect on crop grade, c: corn: application herbicide amount 320 g/ha. The gist of the method:
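Crop seed is sown in spots together with several weed species in a box of sterilized diluvial soil. It is covered by about 1.5 cm of soil and kept in a greenhouse held between 25° C. and 30° C.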

Series [1] deals with Veronica persica. Description: Test Example 4: herbicidal effect by soil treatment (symbol R). Conditions: for Herbicidal effect grade, R: Veronica persica: application herbicide amount 320 g/ha. A digest of the protocol:
(§1)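 Seeds were sown in sterilized diluvial soil, covered with about 1.5 cm of soil, and the soil surface was sprayed with a water-diluted emulsion of the compound at a predetermined rate. Plants grew in a greenhouse at 25° C. to 30° C.; effects were scored visually 3 weeks after application.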

A further series relates to rice. In words: Test Example 4: effect on crop by soil treatment (symbol b). The following applies: for Effect on crop grade, b: directly sowed rice plant: application herbicide amount 320 g/ha. The gist of the method: (§2)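 Plants are raised in a greenhouse (25° C. to 30° C.) from spot-sown seed, which sits under about 1.5 cm of sterilized diluvial soil in a box shared with weed species.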

Series [2] concerns Lolium multiflorum Lam. Description: Test Example 4: herbicidal effect by soil treatment (symbol K). Conditions: for Herbicidal effect grade, K: Lolium multiflorum Lam.: application herbicide amount 320 g/ha. The gist of the method: as §1
The test system of a further series is Galium spurium. Description: Test Example 4: herbicidal effect by soil treatment (symbol Q). The following applies: for Herbicidal effect grade, Q: Galium spurium: application herbicide amount 320 g/ha. A digest of the protocol:
as §1

The test system of series [3] is soybean. Description: Test Example 4: effect on crop by soil treatment (symbol d). Conditions: for Effect on crop grade, d: soybean: application herbicide amount 320 g/ha. The gist of the method: as §2
Series [4] relates to Veronica persica. In words: Test Example 5: herbicidal effect by foliage application, plastic box (symbol R). The following applies: 320 g/ha, 3 weeks after application. A digest of the protocol:
(§3)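 Emulsion formulation, diluted with water to the intended rate, was applied uniformly to leaves by small sprayer. Recipients were 14-day greenhouse-grown seedlings (25° C. to 30° C.). Assessment followed at 3 weeks.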

For the next series, the system named is wheat. In words: Test Example 4: effect on crop by soil treatment (symbol e). Conditions: for Effect on crop grade, e: wheat: application herbicide amount 320 g/ha. A digest of the protocol:
as §2

The subject of series [5] is Echinochloa oryzacola Vasing. Description: Test Example 1: herbicidal activity, application before weed generation in submerged conditions (symbol A). The following applies: application herbicide amount 320 g/ha. A digest of the protocol:
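Application before weed emergence: an aqueous dilution of the emulsion formulation was poured onto the surface of 4 cm-deep floodwater on the day of sowing. Effect was judged after 3 weeks (greenhouse, 25–30 °C).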

Series [6] deals with Lolium multiflorum Lam. Description: Test Example 5: herbicidal effect by foliage application, plastic box (symbol K). The following applies: 320 g/ha, 3 weeks after application. A digest of the protocol: as §3
Series [7] deals with Setaria viridis. In words: Test Example 5: herbicidal effect by foliage application, plastic box (symbol G). Conditions: 320 g/ha, 3 weeks after application. A digest of the protocol: as §3
The next series relates to Apera spica-venti. In words: Test Example 4: herbicidal effect by soil treatment (symbol L). The following applies: for Herbicidal effect grade, L: Apera spica-venti: application herbicide amount 320 g/ha. The gist of the method: as §1
For a further series, the system named is Amaranthus retroflexus. Description: Test Example 5: herbicidal effect by foliage application, plastic box (symbol N). The following applies: 320 g/ha, 3 weeks after application. The gist of the method:
as §3

Another series has as its system Cyperus difformis. Description: Test Example 3: herbicidal effect by foliage application, Wagner pot (symbol E). Conditions: application herbicide amount 320 g/ha; for E herbicidal effect grade: Table 24. A digest of the protocol:
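In a shallow-flooded alluvial soil system held at 25–30 °C, plants including rice grew for 14 days and were then sprayed over the foliage with emulsion diluted to a fixed herbicide amount. Visual rating followed at 3 weeks.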

Series [8] relates to Alopecurus myosuroides. Description: Test Example 4: herbicidal effect by soil treatment (symbol J). The following applies: for Herbicidal effect grade, J: Alopecurus myosuroides: application herbicide amount 320 g/ha. The gist of the method:
as §1

In series [9] the test system is Setaria viridis. In words: Test Example 4: herbicidal effect by soil treatment (symbol G). Conditions: for Herbicidal effect grade, G: Setaria viridis: application herbicide amount 320 g/ha. A digest of the protocol:
as §1

Series [10] deals with soybean. Description: Test Example 5: effect on crop by foliage application, plastic box (symbol d). Conditions: 320 g/ha, 3 weeks after application. A digest of the protocol: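 Foliage-application test plants come from spot sowing in sterilized diluvial soil under a soil layer of about 1.5 cm, grown at 25° C. to 30° C. in a greenhouse.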
The next series relates to Avena fatua. In words: Test Example 5: herbicidal effect by foliage application, plastic box (symbol I). The following applies: 320 g/ha, 3 weeks after application. The gist of the method: as §3
In series [11] the test system is Alopecurus myosuroides. In words: Test Example 5: herbicidal effect by foliage application, plastic box (symbol J). The following applies: 320 g/ha, 3 weeks after application. A digest of the protocol:
as §3

For the molecule `CC#Cc1cc(C)c(C2=C(O)CC(CC(=NOCCOC)C(C)C)C2=O)c(C)c1` (stereo not drawn) [9-023], the “Effect on crop grade, c: corn” value with corn is 3 (Herbicidal ratio of 40% or higher and lower than 70%). For the same molecule, in the series on Veronica persica [1], the “Herbicidal effect grade, R: Veronica persica” value is listed as 0 (Herbicidal ratio of 5% or lower (almost no effect)). The “Effect on crop grade, b: directly sowed rice plant” value in the series on rice is 5 (Herbicidal ratio of 90% or more (almost completely withered)). The “Herbicidal effect grade, K: Lolium multiflorum Lam.” value in the series with Lolium multiflorum Lam. [2] is 3 (Herbicidal ratio of 40% or higher and lower than 70%). The “Herbicidal effect grade, Q: Galium spurium” value with Galium spurium was 0 (Herbicidal ratio of 5% or lower (almost no effect)). The “Effect on crop grade, d: soybean” value in the series with soybean [3] is given as 0 (Herbicidal ratio of 5% or lower (almost no effect)). In addition, the “R: Veronica persica, herbicidal effect grade” value in the series with Veronica persica [4] is 3 (Herbicidal ratio of 40% or higher and lower than 70%). In addition, in the series on wheat, the “Effect on crop grade, e: wheat” value is 3 (Herbicidal ratio of 40% or higher and lower than 70%). Also, the “A (Echinochloa oryzacola Vasing.) herbicidal effect grade” value in [5] was 5 (Herbicidal ratio of 90% or more (almost completely withered)). The “K: Lolium multiflorum Lam., herbicidal effect grade” value with Lolium multiflorum Lam. [6] is 5 (Herbicidal ratio of 90% or more (almost completely withered)). For the same molecule, the “G: Setaria viridis, herbicidal effect grade” value in the series on Setaria viridis [7] was 5 (Herbicidal ratio of 90% or more (almost completely withered)). Moreover, the “Herbicidal effect grade, L: Apera spica-venti” value in the series on Apera spica-venti is on record as 5 (Herbicidal ratio of 90% or more (almost completely withered)). Also, in the series on Amaranthus retroflexus, the “N: Amaranthus retroflexus, herbicidal effect grade” value is given as 0 (Herbicidal ratio of 5% or lower (almost no effect)). In the series with Cyperus difformis, the “E herbicidal effect grade” value is given as 5 (Herbicidal ratio of 90% or more (almost completely withered)). In addition, the “Herbicidal effect grade, J: Alopecurus myosuroides” value in the series on Alopecurus myosuroides [8] is 3 (Herbicidal ratio of 40% or higher and lower than 70%). The “Herbicidal effect grade, G: Setaria viridis” value in the series on Setaria viridis [9] is recorded as 5 (Herbicidal ratio of 90% or more (almost completely withered)). Besides, the “d: soybean, effect on crop grade” value with soybean [10] is recorded as 0 (Herbicidal ratio of 5% or lower (almost no effect)). The “I: Avena fatua, herbicidal effect grade” value with Avena fatua was 4 (Herbicidal ratio of 70% or higher and lower than 90%). In addition, the “J: Alopecurus myosuroides, herbicidal effect grade” value in the series on Alopecurus myosuroides [11] is recorded as 5 (Herbicidal ratio of 90% or more (almost completely withered)).

For the molecule `Cc1cc(-n2cc(Cl)cn2)cc(C)c1C1=C(O)CC(CC(=NOCC(F)(F)F)C(C)C)C1=O` (stereo not drawn) [9-014], the “Effect on crop grade, c: corn” value with corn is listed as 0 (Herbicidal ratio of 5% or lower (almost no effect)). Moreover, the “Herbicidal effect grade, R: Veronica persica” value with Veronica persica [1] was 0 (Herbicidal ratio of 5% or lower (almost no effect)). The “Effect on crop grade, b: directly sowed rice plant” value with rice was 1 (Herbicidal ratio of 5% or higher and lower than 20%). The “Herbicidal effect grade, K: Lolium multiflorum Lam.” value in the series with Lolium multiflorum Lam. [2] is listed as 0 (Herbicidal ratio of 5% or lower (almost no effect)). The “Herbicidal effect grade, Q: Galium spurium” value in the series on Galium spurium is listed as 0 (Herbicidal ratio of 5% or lower (almost no effect)). In the series on soybean [3], the “Effect on crop grade, d: soybean” value is given as 0 (Herbicidal ratio of 5% or lower (almost no effect)). For the same molecule, in the series with Veronica persica [4], the “R: Veronica persica, herbicidal effect grade” value is 2 (Herbicidal ratio of 20% or higher and lower than 40%). Besides, in the series with wheat, the “Effect on crop grade, e: wheat” value is recorded as 0 (Herbicidal ratio of 5% or lower (almost no effect)). For the same molecule, in series [5], the “A (Echinochloa oryzacola Vasing.) herbicidal effect grade” value is on record as 5 (Herbicidal ratio of 90% or more (almost completely withered)). Further, the “K: Lolium multiflorum Lam., herbicidal effect grade” value with Lolium multiflorum Lam. [6] was 4 (Herbicidal ratio of 70% or higher and lower than 90%). The “G: Setaria viridis, herbicidal effect grade” value in the series with Setaria viridis [7] was 5 (Herbicidal ratio of 90% or more (almost completely withered)). Besides, in the series with Apera spica-venti, the “Herbicidal effect grade, L: Apera spica-venti” value is recorded as 0 (Herbicidal ratio of 5% or lower (almost no effect)). Moreover, in the series on Amaranthus retroflexus, the “N: Amaranthus retroflexus, herbicidal effect grade” value is reported as 0 (Herbicidal ratio of 5% or lower (almost no effect)). Also, in the series on Cyperus difformis, the “E herbicidal effect grade” value was 5 (Herbicidal ratio of 90% or more (almost completely withered)). Also, the “Herbicidal effect grade, J: Alopecurus myosuroides” value in the series with Alopecurus myosuroides [8] is listed as 0 (Herbicidal ratio of 5% or lower (almost no effect)). In addition, the “Herbicidal effect grade, G: Setaria viridis” value in the series with Setaria viridis [9] is 3 (Herbicidal ratio of 40% or higher and lower than 70%). The “d: soybean, effect on crop grade” value in the series with soybean [10] is recorded as 0 (Herbicidal ratio of 5% or lower (almost no effect)). Further, the “I: Avena fatua, herbicidal effect grade” value in the series with Avena fatua is 4 (Herbicidal ratio of 70% or higher and lower than 90%). Besides, the “J: Alopecurus myosuroides, herbicidal effect grade” value in the series with Alopecurus myosuroides [11] is 4 (Herbicidal ratio of 70% or higher and lower than 90%).

As to `CON=C(C)CC1CC(OC(=O)N(C)C)=C(c2c(C)cc(C)cc2C)C1=O` (stereo not drawn) [1-108], in the series on corn (320 g/ha), the “c: corn, effect grade on crop” value is 5 (Herbicidal ratio of 90% or more (almost completely withered)). Besides, the “R: Veronica persica, herbicidal effect grade” value with Veronica persica [1] (320 g/ha) is reported as 0 (Herbicidal ratio of 5% or lower (almost no effect)). Also, the “b: directly sowed rice plant, effect grade on crop” value in the series on rice (320 g/ha) is 5 (Herbicidal ratio of 90% or more (almost completely withered)). The “K: Lolium multiflorum Lam., herbicidal effect grade” value with Lolium multiflorum Lam. [2] (320 g/ha) is given as 5 (Herbicidal ratio of 90% or more (almost completely withered)). Besides, the “Q: Galium spurium, herbicidal effect grade” value with Galium spurium (320 g/ha) is on record as 0 (Herbicidal ratio of 5% or lower (almost no effect)). In the series with soybean [3] (320 g/ha), the “d: soybean, effect grade on crop” value is on record as 0 (Herbicidal ratio of 5% or lower (almost no effect)). Besides, the “R: Veronica persica, herbicidal effect (criteria 0-5)” value with Veronica persica [4] is 1 (Herbicidal ratio of 5% or higher and lower than 20%). Besides, the “e: wheat, effect grade on crop” value with wheat (320 g/ha) was 4 (Herbicidal ratio of 70% or higher and lower than 90%). In addition, in [5], the “Herbicidal effect grade, A: Echinochloa oryzacola Vasing.” value is 5 (Herbicidal ratio of 90% or more (almost completely withered)). In addition, in the series on Lolium multiflorum Lam. [6], the “K: Lolium multiflorum Lam., herbicidal effect (criteria 0-5)” value is listed as 5 (Herbicidal ratio of 90% or more (almost completely withered)). Also, the “G: Setaria viridis, herbicidal effect (criteria 0-5)” value in the series with Setaria viridis [7] is given as 5 (Herbicidal ratio of 90% or more (almost completely withered)). Moreover, the “L: Apera spica-venti, herbicidal effect grade” value in the series with Apera spica-venti (320 g/ha) is on record as 5 (Herbicidal ratio of 90% or more (almost completely withered)). Moreover, the “N: Amaranthus retroflexus, herbicidal effect (criteria 0-5)” value in the series on Amaranthus retroflexus is 5 (Herbicidal ratio of 90% or more (almost completely withered)). Further, the “herbicidal effect on E, grade 0-5” value with Cyperus difformis is 5 (Herbicidal ratio of 90% or more (almost completely withered)). Besides, in the series on Alopecurus myosuroides [8] (320 g/ha), the “J: Alopecurus myosuroides, herbicidal effect grade” value is 5 (Herbicidal ratio of 90% or more (almost completely withered)). In addition, the “G: Setaria viridis, herbicidal effect grade” value with Setaria viridis [9] (320 g/ha) was 5 (Herbicidal ratio of 90% or more (almost completely withered)). For the same molecule, the “d: soybean, effect on crop (criteria 0-5)” value in the series on soybean [10] is 3 (Herbicidal ratio of 40% or higher and lower than 70%). Also, the “I: Avena fatua, herbicidal effect (criteria 0-5)” value in the series on Avena fatua is recorded as 5 (Herbicidal ratio of 90% or more (almost completely withered)). In the series on Alopecurus myosuroides [11], the “J: Alopecurus myosuroides, herbicidal effect (criteria 0-5)” value is 5 (Herbicidal ratio of 90% or more (almost completely withered)).
